Results reported in PubChem BioAssay (NCI).
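These data come from cells grown in 96-well plates and exposed to compound for 48 hours at five concentrations. Here, GI50 denotes the concentration required for 50% inhibition of growth. TGI: total growth inhibition.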

Experiments:
Experiment in all cases: NCI anticancer screen, dose series, 48 h
[1] = test system: HT29 colon
[2] = test system: NCI-H460 lung
[3] = test system: SN12C renal
[4] = test system: EKVX NSCLC
[5] = test system: T-47D breast
[6] = test system: MDA-MB-231 breast
[7] = test system: NCI-H23 lung
[8] = test system: A498 renal
[9] = test system: OVCAR-4 ovarian
[10] = test system: HOP-62 NSCLC
[11] = test system: CAKI-1 renal
[12] = test system: MCF7 breast
[13] = test system: COLO 205 colon
[14] = test system: NCI-H522 lung
[15] = test system: SW-620 colon
[16] = test system: SK-OV-3 ovarian
[17] = test system: A549 NSCLC
[18] = test system: RPMI-8226 leukemia
[19] = test system: BT-549 breast
[20] = test system: HCC-2998 colon
[21] = test system: SNB-19 CNS
[22] = test system: SF-268 CNS
[23] = test system: SF-295 CNS
[24] = test system: MDA-MB-435
[25] = test system: M14 melanoma
[26] = test system: SK-MEL-28 melanoma
[27] = test system: RXF 393 renal
[28] = test system: PC-3 prostate
[29] = test system: MALME-3M melanoma

Work on `O=C1/C(=C/c2ccc(Cl)cc2)COc2ccc(O)cc21` yielded a GI50 [1] of 2.67 µM, a TGI [1] of 6.61 µM and a GI50 [2] of 3.32 µM. The TGI [2] was 11.2 µM, the GI50 [3] was 1.86 µM and the TGI [3] was 4.22 µM. For the same compound, the GI50 [4] was 7.31 µM, the TGI [4] was 20.4 µM and the GI50 [5] was 2.22 µM. For the same compound, the TGI [5] was 5.59 µM, the GI50 [6] was 2.73 µM and the TGI [6] was 8.62 µM. For the same compound, the GI50 [7] was 2.21 µM, the TGI [7] was 5.16 µM and the GI50 [8] was 13.9 µM. It also gave a TGI [8] of 27.7 µM, a GI50 [9] of 3.83 µM and a TGI [9] of 16.3 µM. The GI50 [10] was 6.31 µM, the TGI [10] was 22.5 µM and the GI50 [11] was 2.02 µM. The TGI [11] was 5.3 µM, the GI50 [12] was 1.41 µM and the TGI [12] was 2.96 µM. For the same compound, the GI50 [13] was 1.86 µM, the TGI [13] was 4.63 µM and the GI50 [14] was 1.72 µM. The TGI [14] was 3.5 µM, the GI50 [15] was 1.87 µM and the TGI [15] was 4.26 µM. For the same compound, the GI50 [16] was 14 µM, the TGI [16] was 44.5 µM and the GI50 [17] was 9.28 µM. The TGI [17] was 30.7 µM, the GI50 [18] was 0.302 µM and the TGI [18] was 0.905 µM. For the same compound, the GI50 [19] was 3.34 µM, the TGI [19] was 11.5 µM and the GI50 [20] was 1.82 µM. For the same compound, the TGI [20] was 3.33 µM, the GI50 [21] was 2.16 µM and the TGI [21] was 5.18 µM. The GI50 [22] was 3.29 µM, the TGI [22] was 16.7 µM and the GI50 [23] was 14.5 µM. It also gave a TGI [23] of 30 µM, a GI50 [24] of 2.77 µM and a TGI [24] of 8.2 µM. The GI50 [25] was 2.33 µM, the TGI [25] was 6.31 µM and the GI50 [26] was 2.07 µM. It also gave a TGI [26] of 4.33 µM, a GI50 [27] of 1.83 µM and a TGI [27] of 3.45 µM. It also gave a GI50 [28] of 2.15 µM, a TGI [28] of 5.14 µM and a GI50 [29] of 2.37 µM. It also gave a TGI [29] of 6.08 µM.
